Reference: paper PMC2556223 (Journal of biomolecular screening, 2008)
Like-named read-outs stand apart in the source and are kept apart here.

What was measured:
cells = assay: Quantitative cytotoxicity assay; type: cell-based; conditions: for CC50: 24 h, absence of virus, highest concentration assessed 150 μM, averages of two experiments; for SI (CC50/EC50): specificity index, CC50 / EC50 against MV-Alaska
MV-Ibd = assay: Dose-response CPE assay against AS-48-resistant MV strain; conditions: for EC50 (MV-Ibd): strain naturally resistant to MV fusion inhibitor AS-48, highest concentration assessed 37.5 μM
HPIV3 = assay: Dose-response CPE assay, Vero cells; type: cell-based, human parainfluenzavirus type 3; conditions: for EC50: read-out: EC50 (HPIV3)
CDV-752 = assay: Dose-response CPE assay, Vero-dogSLAM cells; type: cell-based, canine distemper virus; conditions: for EC50: read-out: EC50 (CDV-752)
MV-AII-5 = assay: Dose-response CPE assay against AS-136A-adapted MV variant; conditions: read-out: EC50 (MV-AII-5); MV-Alaska variant adapted to grow in presence of RdRp inhibitor AS-136A; highest concentration assessed 37.5 μM
[1] = Quantitative cytotoxicity assay; type: cell-based
[2] = target: MV H and F envelope glycoproteins (Measles virus, UniProt P08362+P69353); assay: cell-based
MV H and F envelope glycoproteins, sequence (P08362 whole entry): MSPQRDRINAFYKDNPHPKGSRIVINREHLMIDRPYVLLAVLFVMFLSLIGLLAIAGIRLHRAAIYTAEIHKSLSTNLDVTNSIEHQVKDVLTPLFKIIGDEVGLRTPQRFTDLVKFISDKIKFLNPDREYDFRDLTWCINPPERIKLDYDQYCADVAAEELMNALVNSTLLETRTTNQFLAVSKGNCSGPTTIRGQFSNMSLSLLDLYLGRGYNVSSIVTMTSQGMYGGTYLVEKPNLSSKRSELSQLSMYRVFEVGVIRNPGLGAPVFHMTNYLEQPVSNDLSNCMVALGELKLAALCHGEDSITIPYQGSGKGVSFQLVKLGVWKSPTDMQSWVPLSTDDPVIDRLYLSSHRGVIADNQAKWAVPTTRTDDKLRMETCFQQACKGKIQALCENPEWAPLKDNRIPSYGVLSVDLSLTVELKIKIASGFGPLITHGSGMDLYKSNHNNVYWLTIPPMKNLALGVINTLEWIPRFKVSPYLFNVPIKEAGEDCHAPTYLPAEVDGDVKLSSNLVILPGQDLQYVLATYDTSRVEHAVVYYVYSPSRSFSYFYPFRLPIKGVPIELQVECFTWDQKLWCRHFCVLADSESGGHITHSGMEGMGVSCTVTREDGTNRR
MV H and F envelope glycoproteins, sequence (P69353 113-550): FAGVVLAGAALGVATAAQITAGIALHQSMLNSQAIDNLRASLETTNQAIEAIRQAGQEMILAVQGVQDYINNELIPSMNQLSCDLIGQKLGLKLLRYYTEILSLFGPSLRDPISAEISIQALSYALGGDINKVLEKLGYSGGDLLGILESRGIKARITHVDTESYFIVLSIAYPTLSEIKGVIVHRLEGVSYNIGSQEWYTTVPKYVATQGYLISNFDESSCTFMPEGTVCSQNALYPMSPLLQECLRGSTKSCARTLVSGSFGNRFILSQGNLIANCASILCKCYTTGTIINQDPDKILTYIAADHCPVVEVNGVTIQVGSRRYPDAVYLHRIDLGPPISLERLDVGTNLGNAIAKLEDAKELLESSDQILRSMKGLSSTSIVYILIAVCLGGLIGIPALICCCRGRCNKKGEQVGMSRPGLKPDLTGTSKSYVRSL
MV H and F envelope glycoproteins, sequence (P69353 24-112): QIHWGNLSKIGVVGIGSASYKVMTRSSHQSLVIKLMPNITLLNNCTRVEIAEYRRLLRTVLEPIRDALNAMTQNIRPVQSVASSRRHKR

MV-Alaska = assay: Dose-response curves based on suppression of viral CPE; type: cell-based, measles virus; conditions: for Activity of re-synthesized compound versus original library substance: biotesting of chemically re-synthesized compound, data not shown
[3] = Vero cells, highest concentration assessed 37.5 μM
[4] = Vero-dogSLAM cells, highest concentration assessed 37.5 μM

CS(=O)(=O)N1CCc2cc(-c3csc(NC(=O)Cc4cccs4)n3)ccc21 [compound 846635]
CC50 (cells): ~150 µM | SI (CC50/EC50) (cells): 56 | EC50 (MV-Ibd) (MV-Ibd): no activity detected | EC50 (HPIV3) (HPIV3; [3]): no activity detected | EC50 (CDV-752) (CDV-752; [4]): no activity detected | EC50 (MV-AII-5): 3.7 ± 0.1 µM

CC1Cc2cc(-c3csc(NC(=O)Cc4cccs4)n3)ccc2N1S(C)(=O)=O (stereo not drawn) [compound 852230]
CC50 (cells): ~150 µM | SI (CC50/EC50) (cells): 46 | EC50 (MV-Ibd) (MV-Ibd): no activity detected | EC50 (HPIV3) (HPIV3; [3]): no activity detected | EC50 (CDV-752) (CDV-752; [4]): no activity detected | EC50 (MV-AII-5): 4.5 ± 0.2 µM

COc1cccc(CNC(=O)c2cc3oc4ccccc4c3n2C)c1OC [compound 4242806]
CC50 (cells): 147 µM | SI (CC50/EC50) (cells): 105 | EC50 (HPIV3; [3]): 2 ± 0.1 µM | EC50 (CDV-752; [4]): 2.1 ± 0.1 µM | EC50 (MV-AII-5): 2.1 ± 0.1 µM

CSc1cccc(NC(=O)Cn2cccc2)c1 [compound 4245209]
EC50 (MV-Ibd) (MV-Ibd): no activity detected | EC50 (HPIV3) (HPIV3; [3]): no activity detected | EC50 (CDV-752; [4]): 31.1 µM | EC50 (MV-AII-5): 14.3 ± 0.8 µM

O=C(Cc1cccs1)Nc1nc2c(s1)CCCC2 [compound 4256670]
CC50 at 24 h [1]: ~150 µM | selectivity ratio [1]: 68 | EC50 (MV-Ibd; Measles morbillivirus, read-out: EC50 (MV-Ibd)): 26.6 ± 9.3 µM | EC50 (HPIV3; Human respirovirus 3, Vero, in Homo sapiens): 5.8 ± 0.6 µM | EC50 (CDV-752; canine distemper virus): 3.9 ± 0.2 µM | EC50 [2]: 22 µM | Suppression of reporter expression ([2]; at 5 μM): did not suppress reporter expression at all | EC50 (MV-Alaska; Measles morbillivirus, 96 h, read-out: EC50 (MV-Alaska)): 2.2 ± 0.3 µM

Cc1ccc2[nH]c(=O)c(N3CCOCC3)c(-c3ccccc3)c2c1 [compound 4259333]
CC50 (cells): 118 µM | SI (CC50/EC50) (cells): 36 | EC50 (HPIV3) (HPIV3; [3]): no activity detected | EC50 (CDV-752) (CDV-752; [4]): no activity detected | EC50 (MV-AII-5): 4.3 ± 0.3 µM

CSc1ccccc1NC(=O)Cn1c(-c2cscn2)nc2ccccc21 [compound 4261934]
CC50 (cells): > 150 µM | SI (CC50/EC50) (cells): >63 | EC50 (HPIV3) (HPIV3; [3]): no activity detected | EC50 (CDV-752) (CDV-752; [4]): no activity detected | EC50 (MV-AII-5): 3.9 ± 0.1 µM

CNC(=O)c1ccc(OCc2ccccc2)c(OC)c1 [compound 4265637]
CC50 (cells): > 150 µM | SI (CC50/EC50) (cells): >50 | EC50 (MV-Ibd) (MV-Ibd): no activity detected | EC50 (HPIV3) (HPIV3; [3]): no activity detected | EC50 (CDV-752; [4]): 6.7 ± 0.1 µM | EC50 (MV-AII-5): 4.7 ± 0.3 µM

CCOC(=O)Cn1c(-c2nonc2NC(=O)c2ccccc2F)nc2ccccc21 [compound 7973070]
CC50 (cells): ~150 µM | SI (CC50/EC50) (cells): 375 | EC50 (HPIV3; [3]): 1.9 ± 0.1 µM | EC50 (CDV-752; [4]): 1 ± 0.1 µM | EC50 (MV-AII-5): 2 ± 0.2 µM

CSc1nnc2c3ccccc3n(CCc3ccccc3)c2n1 [compound 7976354]
CC50 (cells): > 150 µM | SI (CC50/EC50) (cells): >33 | EC50 (HPIV3; [3]): 3.5 ± 0.1 µM | EC50 (CDV-752; [4]): 0.9 ± 0.1 µM | EC50 (MV-AII-5): 1 ± 0.1 µM

Cc1ccc(N(Cc2ccc(C(=O)NC3CCCCC3)cc2)S(C)(=O)=O)cc1C [compound 14722514]
CC50 (cells): ~150 µM | SI (CC50/EC50) (cells): 214 | EC50 (HPIV3) (HPIV3; [3]): no activity detected | EC50 (CDV-752) (CDV-752; [4]): no activity detected | EC50 (MV-AII-5): 3.6 ± 1.6 µM | Activity of re-synthesized compound versus original library substance (MV-Alaska): essentially identical to the original substances stored in the library

CS(=O)(=O)N1CCc2cc(-c3csc(NC(=O)Cc4ccccc4)n3)ccc21 [compound 14723513]
CC50 (cells): > 150 µM | SI (CC50/EC50) (cells): >41 | EC50 (MV-Ibd) (MV-Ibd): no activity detected | EC50 (HPIV3) (HPIV3; [3]): no activity detected | EC50 (CDV-752; [4]): 26.8 ± 8.7 µM | EC50 (MV-AII-5): 3.6 ± 0.2 µM

Cn1c(C(=O)NCc2ccccc2)cc2oc3ccccc3c21 [compound 14735307]
CC50 (cells): > 150 µM | EC50 (HPIV3) (HPIV3; [3]): no activity detected | EC50 (CDV-752) (CDV-752; [4]): no activity detected | EC50 (MV-AII-5): 5.4 ± 1.6 µM

CCN(CC)C(=O)N1c2ccccc2C=Cc2ccccc21 [compound 14740150]
CC50 (cells): > 150 µM | SI (CC50/EC50) (cells): >34 | EC50 (HPIV3; [3]): 3 ± 0.1 µM | EC50 (CDV-752; [4]): 1.9 ± 0.1 µM

CC(=O)/C(C#N)=C1\NC(=O)C(Cc2ccc(C)c(C)c2)S1 (stereo not drawn) [compound 14741996]
CC50 (cells): > 150 µM | SI (CC50/EC50) (cells): >47 | EC50 (HPIV3; [3]): 3.9 ± 0.1 µM | EC50 (CDV-752; [4]): 4.2 ± 0.1 µM | EC50 (MV-AII-5): 7.7 ± 0.1 µM

C=CCn1c(SCC(=O)N2CC(=O)Nc3ccccc32)nc2scc(-c3ccccc3)c2c1=O [compound 14743644]
CC50 (cells): ~150 µM | SI (CC50/EC50) (cells): 56 | EC50 (HPIV3) (HPIV3; [3]): no activity detected | EC50 (CDV-752) (CDV-752; [4]): no activity detected | EC50 (MV-AII-5): 4.6 ± 0.1 µM

C#CCn1c(S(=O)(=O)Cc2ccc(F)cc2)nc(-c2ccccc2)c1-c1ccccc1 [compound 17409378]
CC50 (cells): 26 µM | SI (CC50/EC50) (cells): 37 | EC50 (HPIV3; [3]): 1.7 ± 0.2 µM | EC50 (MV-AII-5): 1.4 ± 0.3 µM

COc1ccc([N+](=O)[O-])cc1NC(=O)CCc1ccccc1 [compound 17416393]
CC50 (cells): > 150 µM | SI (CC50/EC50) (cells): >100 | EC50 (MV-Ibd) (MV-Ibd): no activity detected | EC50 (HPIV3) (HPIV3; [3]): no activity detected | EC50 (CDV-752; [4]): 12.9 ± 0.7 µM | EC50 (MV-AII-5): 2.9 ± 0.5 µM

O=C(/C=C/c1cccs1)Nc1cccc(NC(=O)/C=C/c2cccs2)n1 [compound 17433375]
CC50 (cells): 70 µM | SI (CC50/EC50) (cells): 19 | EC50 (HPIV3) (HPIV3; [3]): no activity detected | EC50 (CDV-752) (CDV-752; [4]): no activity detected | EC50 (MV-AII-5): 3.2 ± 0.1 µM

CC(=O)Nc1ccc(Nc2cc(C)nc3c(-c4ccccc4)cnn23)cc1 [compound 17505573]
CC50 (cells): 54 µM | SI (CC50/EC50) (cells): 14 | EC50 (MV-Ibd) (MV-Ibd): no activity detected | EC50 (HPIV3) (HPIV3; [3]): no activity detected | EC50 (CDV-752) (CDV-752; [4]): no activity detected | EC50 (MV-AII-5): 1.6 ± 0.1 µM

O=C(Cc1cccs1)Nc1cc(SCCO)cc([N+](=O)[O-])c1 [compound 22402685]
CC50 (cells): > 150 µM | SI (CC50/EC50) (cells): >79 | EC50 (MV-Ibd) (MV-Ibd): no activity detected | EC50 (HPIV3) (HPIV3; [3]): no activity detected | EC50 (CDV-752; [4]): 2.1 ± 0.3 µM | EC50 (MV-AII-5): 1.6 ± 0.2 µM

Cc1cccc(-n2c(SCC(=O)Nc3ncc(Cl)cc3Cl)nc3ccccc32)c1 [compound 22404943]
CC50 (cells): > 150 µM | SI (CC50/EC50) (cells): >214 | EC50 (HPIV3; [3]): 0.6 ± 0.1 µM | EC50 (CDV-752; [4]): 0.4 ± 0.1 µM | EC50 (MV-AII-5): 0.5 ± 0.1 µM

C=CCN=c1scc(-c2ccccc2)n1/N=C/c1ccccn1 [compound 22406106]
CC50 (cells): 139 µM | SI (CC50/EC50) (cells): 116

CCN=c1scc(-c2ccccc2)n1/N=C/c1ccccn1 [compound 22406746]
CC50 (cells): ~150 µM | SI (CC50/EC50) (cells): 37 | EC50 (HPIV3; [3]): 2 ± 0.1 µM | EC50 (CDV-752; [4]): 2.3 ± 0.2 µM

COc1ccc(-n2c(SC(C)C(=O)Nc3ncc(Cl)cc3Cl)nc3ccccc32)cc1 (stereo not drawn) [compound 22407448]
CC50 (cells): > 150 µM | EC50 (HPIV3; [3]): 0.2 ± 0.1 µM | EC50 (MV-AII-5): 0.1 µM | Activity of re-synthesized compound versus original library substance (MV-Alaska): essentially identical to the original substances stored in the library

O=C(CSc1nc2ccccc2n1-c1ccccc1)Nc1ncc(Cl)cc1Cl [compound 22407466]
CC50 (cells): > 150 µM | SI (CC50/EC50) (cells): >71 | EC50 (HPIV3; [3]): 1 ± 0.1 µM | EC50 (CDV-752; [4]): 0.9 ± 0.1 µM

CC(=O)Nc1ccc(-c2csc(NC(=O)CCCc3cccs3)n2)cc1 [compound 22408576]
CC50 (cells): > 150 µM | SI (CC50/EC50) (cells): >65 | EC50 (HPIV3) (HPIV3; [3]): no activity detected | EC50 (CDV-752) (CDV-752; [4]): no activity detected | EC50 (MV-AII-5): 2 ± 0.1 µM

CC(=O)Nc1ccc(-c2csc(NC(=O)C3CCN(S(=O)(=O)c4cccs4)CC3)n2)cc1 [compound 22410899]
CC50 (cells): > 150 µM | SI (CC50/EC50) (cells): >39 | EC50 (HPIV3) (HPIV3; [3]): no activity detected | EC50 (CDV-752) (CDV-752; [4]): no activity detected | EC50 (MV-AII-5): 3.8 ± 0.3 µM

Cc1cccc2c(=O)cc(C)n(Cc3ccccc3)c12 [compound 22415156]
CC50 (cells): > 150 µM | SI (CC50/EC50) (cells): >42 | EC50 (HPIV3) (HPIV3; [3]): no activity detected | EC50 (CDV-752; [4]): 11 ± 0.1 µM | EC50 (MV-AII-5): 2.4 ± 0.2 µM

COc1cc(/C=C/C(=O)N2CCOCC2)ccc1OCc1ccccc1 [compound 22415419]
CC50 (cells): > 150 µM | SI (CC50/EC50) (cells): >33 | EC50 (MV-Ibd) (MV-Ibd): no activity detected | EC50 (HPIV3) (HPIV3; [3]): no activity detected | EC50 (CDV-752; [4]): 5 ± 0.2 µM | EC50 (MV-AII-5): 2.2 ± 0.3 µM

COc1cc(/C=C/C(=O)NC(C)C)ccc1OCc1ccccc1 [compound 22415706]
EC50 (MV-Ibd) (MV-Ibd): no activity detected | EC50 (HPIV3) (HPIV3; [3]): no activity detected | EC50 (CDV-752; [4]): 12.9 µM | EC50 (MV-AII-5): 4.1 µM
